Source: patent US9045555B2, “Vaccine against amyloid folding intermediate” (priority 2008, dated 2015)

Key:
[1] = ELISA of sera of immunized mice, coating homologous peptide-BSA conjugates (anti-peptide titre); type: in vivo, Balb/c mice
[2] = system: oligomeric Aβ 1-42; assay: ELISA of sera of immunized mice, coating oligomeric Aβ 1-42 (cross-reactivity); type: in vivo, Balb/c mice; settings: in vitro ELISA
[3] = system: fibrillar Aβ 1-42; assay: ELISA of sera of immunized mice, coating fibrillar Aβ 1-42 (cross-reactivity); type: in vivo, Balb/c mice; settings: in vitro ELISA
[4] = system: Aβ deposits in post-mortem AD human brain tissue (hippocampus); assay: Immunohistochemical staining of human AD brain sections with sera of immunized mice; settings: mouse serum 1:300, hippocampus cryosections, Braak 5 or 6; positive control 6E10
Description: FIG. 6: Immunohistochemical staining of human brain section donor 99-30 (Braak 6) with a mouse serum (1:300) immunized with cyclo[Aβ(22-28)-YNGK]/tetanus toxoid conjugate (a) and the control monoclonal 6E10 (1:15.000) in (b). […] (Microscope: Leica DMRE fitted with a DC300 camera)
Human brain sections of the hippocampus of several donors with Alzheimer disease (Braak 5 or 6) were used (Netherlands Brain Bank). Cryosections (10 μm) were cut from unfixed directly frozen tissue, thaw-mounted, dried for 1 hour and stored in a sealed box at −20 C. For immunostaining, sections were fixed in 4% PFA-PBS solution for 10 min, washed in 0.05 M phosphate buffer (PB) for 10 min with 2 exchanges and blocked with 10% normal donkey serum (NDS)+0.4% TritonX100 in 0.05M PB for 1 hour at RT. The blocking solution was discarded and diluted mouse sera (1:300; first antibody) in 3% NDS+0.4% TritonX100 in 0.05 M PB was added and incubated 0/N at RT in a box with wet tissues. Sections were washed with 0.05M PB; at least 30 min with one or more exchanges. Then sections were incubated with Donkey-anti-Mouse˜Cy3 1:1400 in 0.05 M PB for 2 hours. Sections were washed with 0.05M PB; at least 30 min with one or more exchanges. Sections were sealed in Vectashield with Dapi (Vector). Mouse Monoclonal 6E10 to beta amyloid 1-17 (Abcam, Cambridge, UK) was used as positive control (1:15,000).

[5] = system: conformational epitope of Aβ 1-42; assay: Antibody response in mice recognizing a conformational epitope of Aβ 1-42; type: in vivo; settings: epitope as expressed in monomer, soluble oligomer, fibrils or neurodegenerative plaques

Substance	antipeptide antibody titers / antibody response to the immunizing peptide [1]	cross-reaction of elicited antibodies with Aβ (1-42)-oligomers [2]	cross-reaction of elicited antibodies with Aβ (1-42)-fibrils [3]	recognition of Aβ deposits / plaques in AD human brain tissue by elicited antibodies [4]	induction of an antibody response in mice specifically recognizing a conformational epitope of Aβ 1-42 [5]
Ac-K*EDVGSNKYNG-NH2 (Ac-K(tetanus toxoid)EDVGSNKYNG-NH2) [group 3, tetanus toxoid conjugate of the linear N-acetylated peptide amide]	good	did not recognize	did not recognize	–	–
cyclo[EDVGSNKYNGK*] (cyclo(EDVGSNKYNGK(tetanus toxoid))) [group 9, tetanus toxoid conjugate of the cyclic peptide [Aβ(22-28)-YNGK*]]	–	cross-react	cross-react	recognize	able to induce an antibody response
